This is an account of results in patent publication US20040097467A1 (priority 2002, published 2004).

Read-outs that look alike come from different tables or passages of the source. Marks after values point to notes of the source that are not given here.

The test system of one data set is rabbits. The note with it: injection or ingestion; cited from earlier work.
The subject of another data set is ovariectomized rats. The note with it: oral; cited from earlier work.
The subject of another data set is postmenopausal women. The note with it: injection, 50 mg twice weekly, 14 months; cited from earlier work.
The next data set relates to overweight subject. The note with it: 500 mg total per day, after several weeks.
Data set [1] has as its system subject at risk for bone loss. The note with it: 500 mg total per day.
The subject of data set [2] is Aortic Rings of Male JCR: LA-cp Rats. The data set is described as follows: Contractile response of aortic rings to phenylephrine. The class given is in vivo, rat. The note with it: for Slope: logistic curve fit, phenylephrine contraction, treated cp/cp rats; for Maximum contraction: phenylephrine, aortic rings from treated cp/cp rats, mean +/− SEM. From the text:
(§1) The JCR:LA-cp rat is known to spontaneously develop the range of dysfunction and pathophysiology associated with Metabolic Syndrome in humans, e.g., obesity, profound insulin resistance, atherosclerosis with enhanced vascular contractility, and reduced vascular relaxation. In addition, obese male rats spontaneously develop ischemic lesions of the heart and are prone to stress-induced myocardial infarcts that can be fatal. Insulin resistance develops rapidly in young rats between the ages of 4 and 7 weeks and is highly correlated with the cardiovascular disease. […] Consistent with this observation is the presence of glomerular sclerosis in the older rats.
(§2) Male JCR: LA-cp rats are maintained on a reversed light cycle at 3 or 7 weeks of age and acclimatized over a 1-week period. This allows metabolic studies to be conducted under subdued light, during the active (dark) phase of their diurnal cycle.
(§3) The rats are divided into four groups and receive one of the three aforementioned feed concentrations or unsupplemented feed. The dosage is maintained on either a mg/kg body weight basis, in which case the diet is formulated on a weekly basis to ensure each rat receives the intended dose on a mg/kg basis, or the specified concentration in the feed. Food consumption and body weights are measured twice weekly.
(§4) At 13 weeks of age, rats in the fed state are sacrificed under anesthesia with halothane in oxygen, and the following tissues are removed for processing as described below:
(§5) 1. Thoracic aorta for vascular function studies;
(§6) The following parameters are measured: Food intake and body weights, ulin response (through a meal tolerance test), plasma total lipid profile, ratio n to creatinine, plasma levels of leptin, C-reactive protein and tumor necrosis TNFα), vascular function studies on aortic rings (contractility/relaxation), levels and activity of peroxisome proliferator-activated receptors (PPARs), osition of plasma cholesterol esters, liver, pancreas, muscle and adipose phatidylinositol-3 (PI-3) Kinase Signaling. Histological analysis are obtained sclerosis; islet morphometry; liver-hepatic damage and lipid content; and al electron microscopy for lipid).

The test system of the next data set is JCR:LA-cp rat.
From the text: as §1, §2, §3
At 12 weeks of age, rats fast over the light (non-active) phase. A fasting blood sample is obtained from the tail and a standardized meal tolerance test (MTT) is performed. Following a 2-day recovery period, the rats are placed in a metabolism cage for 24 hours for the collection of urine.
as §4, §6

For data set [3] the following is noted: human volunteer, 8 g/l solution, three one-cup servings daily for three days, third-day 24-hour urine.
Data set [4] concerns Hearts of Male JCR: LA-cp Rats. The data set is described as follows: Parameters for Langendorf-perfused hearts: coronary flow, reactive hyperemia, bradykinin response. Type of data set: in vivo, rat. The note with it: hearts of treated cp/cp rats; mean +/− SEM, 10 rats.
From the text: Samples were taken from Langendorf-perfused hearts of JCR:LA-cp rats, control and arginine-treated.
as §1, §2, §3, §6

Data set [5] has as its system Aortic Rings of JCR:LA-cp rats. Kind of data set: Relaxant response of aortic rings to acetylcholine. The note with it: treated cp/cp rats; for Maximum Relaxation: acetylcholine, rings pre-contracted with phenylephrine; for Slope: logistic curve fit, acetylcholine relaxation. Type of data set: in vivo, rat.
From the text: as §1, §2, §3, §4, §5, §6

The next data set concerns normal rodents. The note with it: 1% added to normal diet (1.8% L-Arg content); cited from earlier work.
[6] abbreviates: treatment begun at 4 weeks of age, at 12 weeks, vs control group.

For the molecule `NCCCC[C@H](N)C(=O)O.O[Si](O)(O)O` [lysine silicate], the “intimal thickening and fragmentation of arterial elastic fibers” value with rabbits is “prevented”.
Turning to orthosilicic acid, in the data set on ovariectomized rats, the bone formation rate entry is “increased” and the bone turnover result is listed as “slowed”.
Regarding `C[Si](O)(O)O` [monomethyltrisilanol], the “intimal thickening and fragmentation of arterial elastic fibers” value in the data set with rabbits was “prevented”. In the data set with postmenopausal women, the “increase of femoral density (average)” value is 4.7%.
Take arginine silicate: in the data set with overweight subject, the “blood lipid concentrations (cholesterol and triglycerides)” value is “reduced”; the glucose metabolism result is recorded as “normalized”. Also, the bone mineral density entry in data set [1] (after several months) is recorded as “optimal level of bone density”. Also, in [1] (after several weeks), the “serum N-telopeptide of collagen type I and osteocalcin (markers of bone resorption and formation)” value is recorded as “returned to their normal ranges”.
Take `N=C(N)NCCC[C@H](N)C(=O)O.O[Si](O)(O)O` [arginine silicate]: in [2], the Slope is recorded as −1.01 +/− 0.17 and the Maximum contraction turned out to be 1.44 ± 0.07 g. In addition, the “bradykinin response (FIG. 1)” value in the data set with JCR:LA-cp rat (coronary blood flow, FIG. 1) was “improved”. In addition, the “metabolic syndrome and cardiovascular disease (CVD) symptoms” value in the data set on JCR:LA-cp rat (dietary supplementation, compared to controls) was “reduced”. In the data set on JCR:LA-cp rat (setting [6]), the “increases in serum insulin concentration” value is “reduced” and the “increases in urinary albumin excretion” value is “reduced”. In the data set on JCR:LA-cp rat (vs control animals), the body weight entry is given as “reduction”; the “coronary risk lipids and lipoprotein concentrations” value is “reduction”; the endothelial function result is listed as “improved”; the “gene expression and PPAR (α, γ) activity” value is listed as “enhanced”. Also, in the data set with JCR:LA-cp rat (vs control animals), the glomerular sclerosis result is “decreased”, the inflammatory markers entry was “decreased levels”, the insulin resistance entry is recorded as “reduction” and the insulin signaling pathway result is “enhanced”. For the same molecule, in the data set with JCR:LA-cp rat (vs control animals), the ischemic lesions result is given as “reduced”, the islet cell hyperplasia result is on record as “lower levels”, the sensitivity to insulin result was “greater” and the “stress induced myocardial infarct” value is listed as “reduced”. In addition, in the data set on JCR:LA-cp rat (vs control animals), the “structural remodeling (e.g., enlargement of the heart)” value is on record as “reduced”; the tolerance to glucose result is reported as “greater”; the vascular contractility result was “decreased”; the vascular relaxation result was “increased”. For the setting “aqueous solution 0.5 g/l”, the “level of silica (% SiO2)” value is given as 17.5%. In addition, under “aqueous solution 10 g/l, 1 hour”, the “level of silica (% SiO2)” value is listed as 11.8%. In addition, the “level of silica (% SiO2)” value (aqueous solution 10 g/l, 2 hours) was found to be 10.8%. For the setting “aqueous solution 10 g/l, 24 hours”, the “level of silica (% SiO2)” value came out at 9.2%. Further, under “aqueous solution 10 g/l, time 0”, the “level of silica (% SiO2)” value came to 17.5%. In addition, the “urinary silicon output vs baseline” value in [3] is on record as “increased more than tenfold”. Moreover, in [4], the “Bradykinin response Maximum response relative flow” value is 1.95 +/− 0.40, the Coronary flow came out at 10.8 ± 0.4 mL/min and the Reactive hyperemia was 186 +/− 25.3* %. Moreover, in [5], the “Maximum Relaxation” value is 97.1 +/− 4.0% and the Slope was −0.729 +/− 0.105.
Regarding `Cl.N=C(N)NCCC[C@H](N)C(=O)O` [arginine HCl, reference compound], in [2], the Slope is reported as −1.03 +/− 0.14 and the Maximum contraction was 1.84 ± 0.07 g. Also, the thymic weight entry with normal rodents is “increased”. Moreover, in data set [4], the “Bradykinin response Maximum response relative flow” value was 1.48 +/− 0.55, the Coronary flow was determined as 10.5 ± 0.3 mL/min and the Reactive hyperemia is reported as 170 +/− 11** %. Also, in [5], the “Maximum Relaxation” value is 90.4 +/− 3.5% and the Slope is given as −0.673 +/− 0.093.
